According to patent publication US6472348B1, “Pyridone derivatives and herbicides” (Kumiai Chemical Industry Co., Ltd., priority 1996, dated 2002):

How the values were obtained:
Assay type in all cases: in vivo
Set-up in all cases: scale not given here
Diaitaria ciliaris (Di) = assay: Test Example 3: herbicidal effects by upland field foliage treatment
Procedure, shortened: (§1)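 Using plants cultured for 2 weeks in a greenhouse from seed sown in soil-covered sand (pots 120 cm^2), the compounds were applied to foliage, and weed control was graded by standard criteria 14 days thereafter.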

pale smartweed (Po) [1] = assay: as above
Procedure, shortened: as §1

rice flatsedge (Ci) = assay: as above
Procedure, shortened: as §1

[2] = system: common lambsquarters (Ch); assay: as above
Procedure, shortened: as §1

slender amaranth (Am) [3] = assay: as above
Procedure, shortened: as §1

barnyardgrass (Ec) = assay: as above
Procedure, shortened: as §1

pale smartweed (Po) [4] = assay: Test Example 4: crop plant selectivity by upland field soil treatment (cotton), herbicidal effects; details: evaluated 21st day after application
Procedure, shortened: (§2)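 Upland soil treatment: crop and weed seeds in sand pots under a soil cover, compound applied to soil, greenhouse-grown, rated visually 21 d later.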

China jute (Ab) = assay: as above; details: evaluated 21st day after application
Procedure, shortened: as §2

slender amaranth (Am) [5] = assay: as above; details: evaluated 21st day after application
Procedure, shortened: as §2

green foxtail (Se) = assay: as above; details: evaluated 21st day after application
Procedure, shortened: as §2

[6] = 100 g active ingredient per 10 ares, evaluated 14th day after treatment
[7] = 100 g of the active ingredient per 10 ares, evaluated on the 14th day after treatment

| SMILES | Herbicidal effects Di (Diaitaria ciliaris (Di); [6]) | Herbicidal effects Po (pale smartweed (Po) [1]; [6]) | Herbicidal effects Ci (rice flatsedge (Ci); [6]) | Herbicidal effects Ch [2, 6] | Herbicidal effects Am (slender amaranth (Am) [3]; [6]) | Herbicidal effects Ec (barnyardgrass (Ec); [6]) | Herbicidal effects Po (pale smartweed (Po) [4]; dose 1.6 g ai/10 a) | Herbicidal effects Po (pale smartweed (Po) [4]; dose 6.3 g ai/10 a) | Herbicidal effects Ab (China jute (Ab); dose 1.6 g ai/10 a) | Herbicidal effects Ab (China jute (Ab); dose 6.3 g ai/10 a) | Herbicidal effects Am (slender amaranth (Am) [5]; dose 1.6 g ai/10 a) | Herbicidal effects Am (slender amaranth (Am) [5]; dose 6.3 g ai/10 a) | Herbicidal effects Se (green foxtail (Se); dose 1.6 g ai/10 a) | Herbicidal effects Se (green foxtail (Se); dose 6.3 g ai/10 a) | Herbicidal effects Di (Diaitaria ciliaris (Di); [7]) | Herbicidal effects Po (pale smartweed (Po) [1]; [7]) | Herbicidal effects Ci (rice flatsedge (Ci); [7]) | Herbicidal effects Ch [2, 7] | Herbicidal effects Am (slender amaranth (Am) [3]; [7]) | Herbicidal effects Ec (barnyardgrass (Ec); [7]) |
| --- | --- | --- | --- | --- | --- | --- | --- | --- | --- | --- | --- | --- | --- | --- | --- | --- | --- | --- | --- | --- |
| Cn1cc(-c2cc(Oc3ccccc3)c(Cl)cc2F)c(=O)cc1C(F)(F)F [Compound No. 6-19, 5-(4-chloro-2-fluoro-5-phenoxyphenyl)-1-methyl-2-trifluoromethyl-4(1H)-pyridone] | 5 | 5 | 5 | 5 | 5 | 5 | 5 | 5 | 3 | 5 | 5 | 5 | 5 | 5 |  |  |  |  |  |  |
| C#CCn1c(=O)sc2cc(F)c(-c3ccc(C(F)(F)F)n(C)c3=O)cc21 [Compound No. 3-1, 3-[6-fluoro-3-(2-propynyl)-benzothiazolin-2-on-5-yl]-1-methyl-6-trifluoromethyl-2(1H)-pyridone] | 5 | 5 | 5 | 5 | 5 | 5 | 5 | 5 | 5 | 5 | 5 | 5 | 5 | 5 |  |  |  |  |  |  |
| COCc1cc2c(-c3ccc(C(F)(F)F)n(C)c3=O)c(F)cc(Cl)c2o1 [Compound No. 4-4, 3-(7-chloro-5-fluoro-2-methoxymethylbenzofuran-4-yl)-1-methyl-6-trifluoromethyl-2-(1H)-pyridone] | 5 | 5 | 5 | 5 | 5 | 5 | 5 | 5 | 5 | 5 | 5 | 5 | 5 | 5 |  |  |  |  |  |  |
| CCc1cc2c(-c3ccc(C(F)(F)F)n(C)c3=O)c(F)cc(Cl)c2o1 [Compound 4-2] | 5 | 5 | 5 | 5 | 5 | 5 | 5 | 5 | 5 | 5 | 5 | 5 | 5 | 5 |  |  |  |  |  |  |
| C=CCOc1cc(-c2ccc(C(F)(F)F)n(C)c2=O)c(F)cc1Cl [1-16] |  |  |  |  |  |  | 5 | 5 | 5 | 5 | 5 | 5 | 5 | 5 | 5 | 5 | 5 | 5 | 5 | 5 |
| C#CC(C)Oc1cc(-c2ccc(C(F)(F)F)n(C)c2=O)c(F)cc1Cl (stereo not shown) [1-17] |  |  |  |  |  |  | 5 | 5 | 5 | 4 | 5 | 5 | 5 | 5 | 5 | 5 | 5 | 5 | 5 | 5 |
| C=CCN1C(=O)COc2cc(F)c(-c3ccc(C(F)(F)F)n(C)c3=O)cc21 [Compound 2-7] | 5 | 5 | 5 | 5 | 5 | 5 | 5 | 5 | 5 | 5 | 5 | 5 | 4 | 5 |  |  |  |  |  |  |
| CCOCOc1cc(-c2ccc(C(F)(F)F)n(C)c2=O)c(F)cc1Cl [1-181] |  |  |  |  |  |  |  | 5 |  | 5 |  | 5 |  | 5 | 5 | 5 | 5 | 5 | 5 | 5 |
| Cc1cc2c(-c3ccc(C(F)(F)F)n(C)c3=O)c(F)cc(Cl)c2o1 [Compound 4-1] | 5 | 5 | 5 | 5 | 5 | 5 | 5 | 5 | 5 | 5 | 5 | 5 | 5 | 5 |  |  |  |  |  |  |
| C=CC(C)Oc1cc(-c2ccc(C(F)(F)F)n(C)c2=O)c(F)cc1Cl (stereo not shown) [Compound 1-182] |  |  |  |  |  |  |  | 5 |  | 5 |  | 5 |  | 5 | 5 | 5 | 5 | 5 | 5 | 5 |
| CON=Cc1cc(-c2ccc(C(F)(F)F)n(C)c2=O)c(F)cc1Cl [Compound No. 1-72, 5-(1-methyl-6-trifluoromethyl-2(1H)-pyridon-3-yl)-2-chloro-4-fluorobenzaldehydeoxime-O-methyl ether] |  |  |  |  |  |  | 5 | 5 | 5 | 5 | 5 | 5 | 5 | 5 | 5 | 5 | 5 | 5 | 5 | 5 |
| C#CCOc1cc(-c2ccc(C(F)(F)F)n(C)c2=O)c(Cl)cc1Cl [1-30] |  |  |  |  |  |  | 5 | 5 | 5 | 5 | 5 | 5 | 5 | 5 | 5 | 5 | 5 | 5 | 5 | 5 |
| C#CCN1C(=O)COc2cc(F)c(-c3cn(C)c(C(F)(F)F)cc3=O)cc21 [Compound 7-1] | 5 | 5 | 5 | 5 | 5 | 5 |  | 5 |  | 5 |  | 5 |  | 5 |  |  |  |  |  |  |
| CSCOc1cc(-c2ccc(C(F)(F)F)n(C)c2=O)c(F)cc1Cl [Compound 1-208] | 5 | 5 | 5 | 5 | 5 | 5 |  | 4 |  | 5 |  | 5 |  | 5 |  |  |  |  |  |  |
| C#CCSc1cc(-c2ccc(C(F)(F)F)n(C)c2=O)c(F)cc1Cl [1-44] |  |  |  |  |  |  |  | 5 |  | 5 |  | 5 |  | 5 | 5 | 5 | 5 | 5 | 5 | 5 |
| C#CCN1C(=O)COc2cc(F)c(-c3ccc(C(F)(F)F)n(C)c3=O)cc21 [Compound No. 2-1, 3-[7-fluoro-2,3-dihydro-4-(2-propynyl)-1,4-benzoxazin-3-on-6-yl]-1-methyl-6-trifluoromethyl-2(1H)-pyridone] | 5 | 5 | 5 | 5 | 5 | 5 | 5 |  | 5 |  | 5 |  | 5 |  |  |  |  |  |  |  |
| CCOC(=O)c1cc(-c2ccc(C(F)(F)F)n(C)c2=O)c(F)cc1Cl [1-65] |  |  |  |  |  |  | 5 | 5 | 5 | 5 | 5 | 5 | 5 | 5 | 5 | 5 | 5 | 5 | 5 | 5 |
| C=CCN1C(=O)COc2cc(Cl)c(-c3ccc(C(F)(F)F)n(C)c3=O)cc21 [Compound 2-26] | 5 | 5 | 5 | 5 | 5 | 5 |  | 5 |  | 5 |  | 5 |  | 5 |  |  |  |  |  |  |
| COc1cc(-c2ccc(C(F)(F)F)n(N)c2=O)c(F)cc1Cl [1-179] |  |  |  |  |  |  |  | 5 |  | 5 |  | 5 |  | 5 | 5. | 5 | 5 | 5 | 5 | 5 |
| Cn1c(C(F)(F)F)ccc(-c2c(F)cc(Cl)c3occc23)c1=O [Compound No. 4-28, 3-(7-chloro-5-fluorobenzofuran-4-yl)-1-methyl-6-trifluoromethyl-2-(1H)-pyridone] | 5 | 5 | 5 | 5 | 5 | 4 | 5 | 5 | 5 | 5 | 5 | 5 | 5 | 5 |  |  |  |  |  |  |
| C#CC(O)c1cc(-c2ccc(C(F)(F)F)n(C)c2=O)c(F)cc1Cl (stereo not shown) [Compound 1-202] | 5 | 5 | 5 | 5 | 5 | 5 | 5 | 5 | 5 | 5 | 5 | 5 | 5 | 5 |  |  |  |  |  |  |
